# ChEMBL document CHEMBL5316301, “Dual Nicotinamide Phosphoribosyltransferase (NAMPT) and Indoleamine 2,3-Dioxygenase 1 (IDO1) Inhibitors for the Treatment of Drug-Resistant Nonsmall-Cell Lung Cancer” (J Med Chem, 2023)
# pIC50: −log10 of the molar value. Calls of active or inactive are those of the source. No cut-off for these calls is given here.
# Assays:
# [1] = biological target: T1, Indoleamine 2,3-dioxygenase 1 (Homo sapiens, UniProt P14902); experiment: Inhibition of human recombinant IDO1 assessed as reduction in N-formylkynurenine formation using L-tryptophan as substrate preincubated for 30 mins followed by substrate addition and measured after 10 mins by SpectraMax microplate reader analysis
# T1 sequence (P14902 whole entry): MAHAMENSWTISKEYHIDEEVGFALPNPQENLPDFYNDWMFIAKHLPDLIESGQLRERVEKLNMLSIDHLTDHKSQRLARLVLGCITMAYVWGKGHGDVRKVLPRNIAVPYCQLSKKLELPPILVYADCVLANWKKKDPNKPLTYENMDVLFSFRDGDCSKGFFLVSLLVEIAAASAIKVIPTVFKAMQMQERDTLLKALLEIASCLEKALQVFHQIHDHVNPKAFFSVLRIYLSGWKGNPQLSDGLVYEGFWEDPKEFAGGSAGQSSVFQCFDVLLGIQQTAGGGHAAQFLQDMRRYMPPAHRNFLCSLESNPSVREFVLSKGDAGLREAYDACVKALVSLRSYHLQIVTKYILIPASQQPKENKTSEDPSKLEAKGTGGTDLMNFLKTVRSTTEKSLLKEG
# [2] = biological target: T1, Indoleamine 2,3-dioxygenase 1; experiment: Inhibition of human recombinant IDO1 in human HeLa cells assessed as reduction in N-formylkynurenine formation using L-tryptophan as substrate preincubated for 24 hrs followed by substrate addition and measured after 30 mins; type: cell-based
# [3] = biological target: Nicotinamide phosphoribosyltransferase (Homo sapiens, UniProt P43490); experiment: Inhibition of recombinant NAMPT (unknown origin) incubated for 60 mins by SpectraMax microplate reader analysis
# Nicotinamide phosphoribosyltransferase, sequence (P43490 whole entry): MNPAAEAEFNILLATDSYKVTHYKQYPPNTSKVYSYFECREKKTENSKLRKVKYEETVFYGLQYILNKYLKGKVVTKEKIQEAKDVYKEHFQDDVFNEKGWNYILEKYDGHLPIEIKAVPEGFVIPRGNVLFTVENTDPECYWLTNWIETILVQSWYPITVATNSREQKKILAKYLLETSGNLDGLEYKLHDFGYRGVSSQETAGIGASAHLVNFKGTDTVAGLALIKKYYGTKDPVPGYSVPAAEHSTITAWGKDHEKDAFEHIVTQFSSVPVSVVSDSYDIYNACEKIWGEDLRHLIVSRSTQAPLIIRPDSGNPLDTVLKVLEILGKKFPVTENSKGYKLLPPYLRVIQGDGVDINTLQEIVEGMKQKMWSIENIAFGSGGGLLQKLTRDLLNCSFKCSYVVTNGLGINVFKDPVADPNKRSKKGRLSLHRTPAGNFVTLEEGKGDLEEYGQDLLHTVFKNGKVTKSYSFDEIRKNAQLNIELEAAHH
# A549 [4] = experiment: Inhibition of colony formation in NAMPT inhibitor-resistant A549 cells […] by crystal violet staining analysis; type: functional, cell-based; conditions: Homo sapiens, dose 5-15 µM
# [5] = Oral bioavailability in Sprague-Dawley rat at 25 mg/kg; type: ADME, organism-based; conditions: in vivo
# [6] = Apparent volume of distribution in Sprague-Dawley rat at 5 mg/kg, iv; type: ADME, organism-based; conditions: in vivo, read-out: Vz
# A549 [7] = experiment: Antitumor activity against NAMPT inhibitor-resistant A549 cells xenografted in athymic nude mouse assessed as reduction in tumor size at 50 to 200 mg/kg, po bid measured on day 21 in presence of taxol by caliper method; type: functional, organism-based; conditions: Homo sapiens, dose 50-200 mg/kg, time 21.0 day
# A549 [8] = experiment: Downregulation of IDO1 expression in NAMPT inhibitor-resistant A549 cells measured for 12 hrs in presence of cycloheximide by Western blot analysis; type: functional, cell-based; conditions: Homo sapiens
# A549 [9] = experiment: Antitumor activity against NAMPT inhibitor-resistant A549 cells xenografted in athymic nude mouse at 100 to 200 mg/kg, po measured for 14 days in presence of FK866; type: functional, organism-based; conditions: Homo sapiens, dose 100-200 mg/kg, time 14.0 day
# A549 [10] = experiment: Antitumor activity against NAMPT inhibitor-resistant A549 cells xenografted in athymic nude mouse assessed as tumor growth inhibition at 50 mg/kg, po bid measured on day 21 by caliper method; type: functional, Homo sapiens; conditions: A549, 504 h, time 21 day, read-out: TGI
# A549 [11] = experiment: Downregulation of NAD+ level in NAMPT inhibitor-resistant A549 cells at 10 uM measured for 24 hrs; type: functional, cell-based; conditions: Homo sapiens
# A549 [12] = experiment: Antiproliferative activity against NAMPT inhibitor-resistant A549 cells assessed as reduction in cell viability in presence of NAC measured for 48 hrs by CCK-8 assay; type: functional, cell-based; conditions: Homo sapiens
# A549 [13] = experiment: Antimigratory activity against NAMPT inhibitor-resistant A549 cells assessed as decrease in slug expression incubated 24 hrs by Western blot analysis; type: functional, cell-based; conditions: Homo sapiens, dose 5-15 µM
# A549 [14] = experiment: Antiproliferative activity against NAMPT inhibitor-resistant A549 cells assessed as reduction in cell viability in presence of NMN/L-tryptophan/QA measured for 48 hrs by CCK-8 assay; type: functional, cell-based; conditions: Homo sapiens
# A549 [15] = experiment: Antimigratory activity against NAMPT inhibitor-resistant A549 cells assessed as inhibition of cell migration measured after 24 hrs by crystal violet staining based microscopic analysis; type: functional; conditions: Homo sapiens, dose 5-15 µM
# [16] = Toxicity in athymic nude mouse xenografted with NAMPT inhibitor-resistant A549 cells assessed as mortality at 50 to 200 mg/kg, po measured on day 21; type: organism-based; conditions: in vivo, 504 h, dose 50-200 mg/kg, time 21 day
# [17] = Toxicity in athymic nude mouse xenografted with NAMPT inhibitor-resistant A549 cells assessed as change in body weight at 50 to 200 mg/kg, po measured on day 21; type: organism-based; conditions: in vivo, 504 h, dose 50-200 mg/kg, time 21 day
# A549 [18] = experiment: Downregulation of NAD+ level in NAMPT inhibitor-resistant A549 cells at 10 uM measured for 24 hrs in presence of NMN/L-tryptophan/QA; type: functional, cell-based; conditions: Homo sapiens
# A549 [19] = experiment: Antimigratory activity against NAMPT inhibitor-resistant A549 cells assessed as decrease in Snail expression incubated 24 hrs by Western blot analysis; type: functional, cell-based; conditions: Homo sapiens, dose 5-15 µM
# A549 [20] = experiment: Antitumor activity against NAMPT inhibitor-resistant A549 cells xenografted in athymic nude mouse assessed as tumor growth inhibition at 200 mg/kg, po bid measured on day 21 by caliper method; type: functional, Homo sapiens; conditions: A549, 504 h, time 21 day, read-out: TGI
# A549 [21] = experiment: Antiproliferative activity against NAMPT inhibitor-resistant A549 cells assessed as reduction in cell viability in presence of NMN and L-tryptophan measured for 48 hrs by CCK-8 assay; type: functional, cell-based; conditions: Homo sapiens
# [22] = Clearance in Sprague-Dawley rat at 5 mg/kg, iv; type: ADME, organism-based; conditions: in vivo
# A549 [23] = experiment: Antitumor activity against NAMPT inhibitor-resistant A549 cells xenografted in athymic nude mouse assessed as tumor growth inhibition at 100 mg/kg, po bid measured on day 21 in presence of taxol by caliper method; type: functional, Homo sapiens; conditions: A549, 504 h, time 21 day, read-out: TGI
# [24] = AUC in Sprague-Dawley rat at 25 mg/kg, po; type: ADME, organism-based; design: dose 25 mg/kg, route po; conditions: in vivo
# A549 [25] = experiment: Downregulation of IDO1 expression in NAMPT inhibitor-resistant A549 cells measured for 24 hrs by Western blot analysis; type: functional, cell-based; conditions: Homo sapiens, dose 5-10 µM
# A549 [26] = experiment: Downregulation of IDO1 expression in NAMPT inhibitor-resistant A549 cells measured for 12 hrs in presence of MG-132 by Western blot analysis; type: functional, cell-based; conditions: Homo sapiens
# A549 [27] = experiment: Induction of ROS production in NAMPT inhibitor-resistant A549 cells assessed as ROS accumulation at 5 to 15 uM incubated for 24 hrs in presence of NAC by DCFH-DA staining based flow cytometry analysis; type: functional, cell-based; conditions: Homo sapiens, dose 5-15 µM
# A549 [28] = experiment: Effect on intracellular lipid level in NAMPT inhibitor-resistant A549 cells measured for 24 hrs by nile red staining based microscopic analysis; type: functional, cell-based; conditions: Homo sapiens
# A549 [29] = experiment: cells; conditions: Homo sapiens, A549, 48 h
# A549 [30] = experiment: Antitumor activity against NAMPT inhibitor-resistant A549 cells xenografted in athymic nude mouse at 100 to 200 mg/kg, po measured for 14 days in presence of epacadostat; type: functional, organism-based; conditions: Homo sapiens, dose 100-200 mg/kg, time 14.0 day
# A549 [31] = experiment: Downregulation of Smad3 expression in NAMPT inhibitor-resistant A549 cells at 5 to 15 uM measured for 24 hrs; type: functional, cell-based; conditions: Homo sapiens, dose 5-15 µM
# A549 [32] = experiment: Antitumor activity against NAMPT inhibitor-resistant A549 cells xenografted in athymic nude mouse at 100 mg/kg, po measured for 14 days in presence of FK866; type: functional, organism-based; conditions: Homo sapiens, time 14.0 day
# Danio rerio [33] = organism: Danio rerio; experiment: Induction of ROS production in zebra fish embryos assessed as increase in green fluorescence at 5 uM measured for 24 hrs by DCFH-DA staining based inverted microscopic analysis; type: functional
# A549 [34] = experiment: Antitumor activity against NAMPT inhibitor-resistant A549 cells xenografted in athymic nude mouse assessed as tumor growth inhibition at 100 mg/kg, po bid measured on day 21 by caliper method; type: functional, Homo sapiens; conditions: A549, 504 h, time 21 day, read-out: TGI
# A549 [35] = experiment: Antitumor activity against NAMPT inhibitor-resistant A549 cells xenografted in athymic nude mouse at 100 mg/kg, po measured for 14 days in presence of epacadostat; type: functional, organism-based; conditions: Homo sapiens, time 14.0 day
# A549 [36] = experiment: Induction of ROS production in NAMPT inhibitor-resistant A549 cells assessed as ROS accumulation incubated for 24 hrs by DCFH-DA staining based flow cytometry analysis; type: functional, cell-based; conditions: Homo sapiens, dose 5-15 µM
# A549 [37] = experiment: Downregulation of NAMPT expression in NAMPT NAMPT inhibitor-resistant A549 cells measured for 24 hrs by Western blot analysis; type: functional, cell-based; conditions: Homo sapiens, dose 5-10 µM
# A549 [38] = experiment: Effect on intracellular lipid level in NAMPT inhibitor-resistant A549 cells measured for 24 hrs by oil red staining based microscopic analysis; type: functional, cell-based; conditions: Homo sapiens
# Danio rerio [39] = organism: Danio rerio; experiment: Induction of ROS production in zebra fish embryos assessed as increase in green fluorescence at 10 uM measured for 24 hrs by DCFH-DA staining based inverted microscopic analysis; type: functional
# A549 [40] = experiment: Antimigratory activity against NAMPT inhibitor-resistant A549 cells assessed as reduction in cell migration at 5 uM incubated for 24 hrs in presence of taxol by inverted microscopic analysis; type: functional, cell-based; conditions: Homo sapiens
compound,measurement,setting,value
O=C(NCCCCNc1nonc1/C(=N/O)Nc1ccc(F)c(Br)c1)c1ccc(CNC(=O)c2ccc3nccn3c2)cc1,pIC50,[1],6.08
same,pIC50,[2],6.17
O=C(NCc1ccc(CNc2nonc2/C(=N/O)Nc2ccc(F)c(Br)c2)cc1)c1ccc2nccn2c1,pIC50,[3],5.31
same,pIC50,[1],< 6.00
O=C(Nc1ccc(CCNc2nonc2/C(=N/O)Nc2ccc(F)c(Br)c2)cc1)c1ccc2nccn2c1,pIC50,[3],< 5.00
same,pIC50,[1],< 6.00
O=C(CCCCNc1nonc1/C(=N/O)Nc1ccc(F)c(Br)c1)Nc1ccc(CNC(=O)c2ccc3nccn3c2)cc1,pIC50,[1],6.12
same,pIC50,[2],6.19
O=C(NCCCCNc1nonc1/C(=N/O)Nc1ccc(F)c(Br)c1)c1ccc2nccn2c1,pIC50,[1],6.18
same,pIC50,[2],6.28
O=C(NCCCCCCNc1nonc1/C(=N/O)Nc1ccc(F)c(Br)c1)c1ccc2nccn2c1,inhibition,A549 [4],Dose-Dependent Effect
same,bioavailability,[5],52.5%
same,Vd,[6],11.5 L/kg
same,Activity,A549 [7],Active
same,Activity,A549 [8],Active
same,Activity,A549 [9],Active
same,pIC50,[3],7.24
same,inhibition in vivo at 50 mg/kg,A549 [10],24.6%
same,Activity,A549 [11],Active
same,Activity,A549 [12],inactive
same,Activity,A549 [13],Dose-Dependent Effect
same,pIC50,[1],6.63
same,Activity,A549 [14],inactive
same,Activity,A549 [15],Dose-Dependent Effect
same,Activity,[16],Non-Toxic
same,Activity,[17],Non-Toxic
same,Activity,A549 [18],Active
same,Activity,A549 [19],Dose-Dependent Effect
same,inhibition in vivo at 200 mg/kg,A549 [20],53.8%
same,Activity,A549 [21],inactive
same,clearance,[22],106 mL/min/kg
same,inhibition in vivo at 100 mg/kg,A549 [23],64.3%
same,AUC,[24],2530 ng·h/mL
same,Activity,A549 [25],Dose-Dependent Effect
same,Activity,A549 [26],inactive
same,Activity,A549 [27],inactive
same,Activity,A549 [28],Active
same,pIC50,A549 [29],5.27
same,Activity,A549 [30],Active
same,pIC50,[2],6.80
same,Activity,A549 [31],Active
same,Activity,A549 [32],Active
same,Activity,Danio rerio [33],Active
same,inhibition in vivo at 100 mg/kg,A549 [34],40.2%
same,Activity,A549 [35],Active
same,Activity,A549 [36],Dose-Dependent Effect
same,Activity,A549 [37],Dose-Dependent Effect
same,Activity,A549 [38],Active
same,Activity,Danio rerio [39],Active
same,Activity,A549 [40],Active
O=C(NCc1ccc(C(=O)N2CCC(CCNc3nonc3/C(=N/O)Nc3ccc(F)c(Br)c3)CC2)cc1)c1ccc2nccn2c1,pIC50,[1],< 6.00
O=C(NCCCNc1nonc1/C(=N/O)Nc1ccc(F)c(Br)c1)c1ccc2nccn2c1,pIC50,[1],< 6.00
same,pIC50,[2],< 6.00
